# Measured values: patent US7524861B2, “Process for the preparation of a hydrate of an anthranilic acid derivative” (priority 2002, dated 2009)
# Marks after values point to notes of the source that are not given here.
# Key:
# [1] = Dehydration/re-hydration study (weight change over desiccants, then 33-95% RH, KF water content); format: physicochemical
# Description: (§1) The hexahydrate produced in Example 1 was analysed as follows. Four desiccator cabinets were prepared to contain open dishes of the following saturated salt solutions, to achieve the following approximate relative humidities (RH).
# (§2) Dehydration of samples was carried out by storing them over silica gel or over P2O5 at reduced pressure (65 mm Hg). All studies were performed at ambient laboratory temperature (15-22° C.).
# During this study, samples were dispensed to pre-equilibrated weighing bottles as in the hygroscopicity study, and were then stored over silica gel without reduced pressure, then over […] under reduced pressure (65 mm Hg) to dehydrate the hydrate. Once a stable weight was achieved over P2O5, samples were re-hydrated by storing them at 33% RH to 95% RH, in parallel with the hygroscopicity study as described above.
# (§3) Water contents were measured by coulometric KF (Karl Fischer) titration.
# [2] = Hygroscopicity study (weight change on storage at 33-95% RH, KF water content); format: physicochemical; details: for KF moisture result: hygroscopicity sample
# Description: as §1, §2
# Pre-equilibrated weighing bottles and lids (stored at 33% RH for a minimum of 24 hours) were weighed on a tared 5-figure analytical balance, and the weight recorded. To these the hydrate was added (approx 2 g), the weight recorded and the difference (the accurate weight of the drug substance) calculated. The weighing bottles, lids and contents were then transferred to the 33% RH cabinet, with the lids removed and placed to the side.
# At appropriate times, the lids were replaced and the weight measured. After weighing, the samples were gently agitated and placed back in the 33% RH cabinet, again with the lid removed and placed to one side. This process continued until all % weight changes for all samples were seen to have reached stable end-points. […]. When stable end-points were observed, the samples were stepped up to the next % RH cabinet by transferring the drug to pre-equilibrated weighing bottles, recording their weight as before. Samples were stored progressively at 33% RH, 60% RH, 75% RH and 95% RH.
# as §3
smiles,measurement,setting,value
"COc1cc2c(cc1OC)CN(CCc1ccc(NC(=O)c3cc(OC)c(OC)cc3NC(=O)c3cnc4ccccc4c3)cc1)CC2 [Example 1, Quinoline-3-carboxylic acid (2-{4-[2-(6,7-dimethoxy-3,4-dihydro-1H-isoquinolin-2-yl)-ethyl]-phenylcarbamoyl}-4,5-dimethoxy-phenyl)-amide]",Cumulative % change Dehydration/Rehydration,"[1]; re-hydration at 33% RH, cumulative time 1741.50 h",−0.97%
same,Cumulative % change Dehydration/Rehydration,"[1]; silica, no vacuum, cumulative time 3.00 h",−2.29%
same,Cumulative % change Dehydration/Rehydration,"[1]; silica, no vacuum, cumulative time 8.50 h",−3.58%
same,Cumulative % change Dehydration/Rehydration,"[1]; silica, no vacuum, cumulative time 24.50 h",−5.92%
same,Cumulative % change Dehydration/Rehydration,"[1]; silica, no vacuum, cumulative time 30.50 h",−6.39%
same,Cumulative % change Dehydration/Rehydration,"[1]; silica, no vacuum, cumulative time 56.00 h",−8.06%
same,Cumulative % change Dehydration/Rehydration,"[1]; silica, no vacuum, cumulative time 80.00 h",−8.50%
same,Cumulative % change Dehydration/Rehydration,"[1]; silica, no vacuum, cumulative time 237.50 h",−8.96%
same,Cumulative % change Dehydration/Rehydration,"[1]; silica, no vacuum, cumulative time 288.50 h",−9.07%
same,Cumulative % change Dehydration/Rehydration,"[1]; silica, with vacuum, cumulative time 308.00 h",−9.07%
same,Cumulative % change Dehydration/Rehydration,"[1]; silica, with vacuum, cumulative time 401.00 h",−8.76%
same,Cumulative % change Hygroscopicity,"[2]; 33% RH, tabulated time 1147.25 h (actual: minus 1144 h)",−0.17* %
same,Cumulative % change Hygroscopicity,"[2]; 33% RH, tabulated time 1150.75 h (actual: minus 1144 h)",−0.22%
same,Cumulative % change Hygroscopicity,"[2]; 33% RH, tabulated time 1168.00 h (actual: minus 1144 h)",−0.47%
same,Cumulative % change Hygroscopicity,"[2]; 33% RH, tabulated time 1240.75 h (actual: minus 1144 h)",−0.37%
same,Cumulative % change Hygroscopicity,"[2]; 33% RH, tabulated time 1268.50 h (actual: minus 1144 h)",−0.42%
same,Cumulative % change Hygroscopicity,"[2]; 33% RH, tabulated time 1312.50 h (actual: minus 1144 h)",−0.49%
same,Cumulative % change Hygroscopicity,"[2]; 33% RH, tabulated time 1431.25 h (actual: minus 1144 h)",−0.63%
same,Cumulative % change Hygroscopicity,"[2]; 33% RH, tabulated time 1502.25 h (actual: minus 1144 h)",−0.51%
same,Cumulative % change Hygroscopicity,"[2]; 33% RH, tabulated time 1672.50 h (actual: minus 1144 h)",−0.70%
same,Cumulative % change Hygroscopicity,"[2]; 33% RH, tabulated time 1741.50 h (actual: minus 1144 h)",−0.76%
same,hygroscopicity on storage at progressively higher RH values,"[2]; 33% to 95% RH, ambient temperature",no evidence of hygroscopicity
same,Cumulative % change Hygroscopicity,"[2]; 60% RH, tabulated time 1744.50 h (actual: minus 1144 h)",0.12%
same,Cumulative % change Hygroscopicity,"[2]; 60% RH, tabulated time 1746.50 h (actual: minus 1144 h)",0.13%
same,Cumulative % change Hygroscopicity,"[2]; 60% RH, tabulated time 1762.50 h (actual: minus 1144 h)",0.08%
same,Cumulative % change Hygroscopicity,"[2]; 60% RH, tabulated time 1835.75 h (actual: minus 1144 h)",0.27%
same,Cumulative % change Hygroscopicity,"[2]; 60% RH, tabulated time 1932.25 h (actual: minus 1144 h)",0.37%
same,Cumulative % change Hygroscopicity,"[2]; 60% RH, tabulated time 2101.50 h (actual: minus 1144 h)",0.56%
same,Cumulative % change Hygroscopicity,"[2]; 60% RH, tabulated time 2147.75 h (actual: minus 1144 h)",0.34%
same,Cumulative % change Hygroscopicity,"[2]; 60% RH, tabulated time 2273.75 h (actual: minus 1144 h)",0.34%
same,Cumulative % change Hygroscopicity,"[2]; 60% RH, tabulated time 2410.25 h (actual: minus 1144 h)",0.27%
same,Cumulative % change Hygroscopicity,"[2]; 75% RH, tabulated time 2417.25 h (actual: minus 1144 h)",0.87%
same,Cumulative % change Hygroscopicity,"[2]; 75% RH, tabulated time 2434.25 h (actual: minus 1144 h)",0.88%
same,Cumulative % change Hygroscopicity,"[2]; 75% RH, tabulated time 2441.25 h (actual: minus 1144 h)",0.88%
same,Cumulative % change Hygroscopicity,"[2]; 75% RH, tabulated time 2482.00 h (actual: minus 1144 h)",0.92%
same,Cumulative % change Hygroscopicity,"[2]; 75% RH, tabulated time 2577.75 h (actual: minus 1144 h)",1.00%
same,Cumulative % change Hygroscopicity,"[2]; 75% RH, tabulated time 2609.75 h (actual: minus 1144 h)",0.96%
same,Cumulative % change Hygroscopicity,"[2]; 75% RH, tabulated time 2681.25 h (actual: minus 1144 h)",1.08%
same,Cumulative % change Hygroscopicity,"[2]; 75% RH, tabulated time 2770.25 h (actual: minus 1144 h)",1.01%
same,Cumulative % change Hygroscopicity,"[2]; 75% RH, tabulated time 2817.75 h (actual: minus 1144 h)",1.09%
same,Cumulative % change Hygroscopicity,"[2]; 95% RH, tabulated time 2825.25 h (actual: minus 1144 h)",1.85%
same,Cumulative % change Hygroscopicity,"[2]; 95% RH, tabulated time 2841.75 h (actual: minus 1144 h)",2.23%
same,Cumulative % change Hygroscopicity,"[2]; 95% RH, tabulated time 2915.75 h (actual: minus 1144 h)",2.57%
same,Cumulative % change Hygroscopicity,"[2]; 95% RH, tabulated time 2937.75 h (actual: minus 1144 h)",2.71%
same,Cumulative % change Hygroscopicity,"[2]; 95% RH, tabulated time 2991.25 h (actual: minus 1144 h)",2.82%
same,Cumulative % change Hygroscopicity,"[2]; 95% RH, tabulated time 3082.25 h (actual: minus 1144 h)",3.28%
same,Cumulative % change Hygroscopicity,"[2]; 95% RH, tabulated time 3130.00 h (actual: minus 1144 h)",3.51%
same,Cumulative % change Hygroscopicity,"[2]; 95% RH, tabulated time 3182.25 h (actual: minus 1144 h)",3.39%
same,Cumulative % change Hygroscopicity,"[2]; 95% RH, tabulated time 3252.25 h (actual: minus 1144 h)",3.62%
same,Cumulative % change Hygroscopicity,"[2]; 95% RH, tabulated time 3350.25 h (actual: minus 1144 h)",3.65%
same,Cumulative % change Hygroscopicity,"[2]; 95% RH, tabulated time 3422.25 h (actual: minus 1144 h)",3.64%
same,Cumulative % change Hygroscopicity,"[2]; 95% RH, tabulated time 3636.25 h (actual: minus 1144 h)",4.12%
same,Cumulative % change Hygroscopicity,"[2]; 95% RH, tabulated time 4332.75 h (actual: minus 1144 h)",4.45%
same,weight increase between storage at 33% RH and end of storage at 75% RH,[2]; both re-hydrated and untreated samples,less than 2 % (absolute)
same,KF moisture result,"[2]; 95% RH, tabulated time 4332.75 h (end)",(15.35) % w/w
same,KF moisture result,[2]; printed in first 33% RH row (start of study),(12.45) % w/w
